Experimental data as given in patent US10035794B2, “Heterocyclic derivatives and their use in the treatment of neurological disorders” (NOVARTIS AG, priority 2011, dated 2018).
Counter-ions that a name gives are not always drawn.

Columns and labels:
[1] = target: Human BACE-1 (Homo sapiens (Human), UniProt P56817); test: Test 1: Inhibition of Human BACE-1; details: read-out: BACE-1 IC50; mean IC50, recombinant BACE-1, pH 4.5
[2] = Test 4: Inhibition of Cellular Release of Amyloid Peptide 1-40; type: cell-based, Chinese hamster; details: Cricetulus griseus, CHO, 24 h; read-out: Amyloid-β1-40 release IC50
Protocol: Chinese hamster ovary cells are transfected with the human gene for amyloid precursor protein. The cells are plated at a density of 8000 cells/well into 96-well microtiter plates and cultivated for 24 hours in DMEM cell culture medium containing 10% FCS. The test compound is added to the cells at various concentrations, and the cells are cultivated for 24 hours in the presence of the test compound.

[3] = target: Human BACE-2 (Homo sapiens (Human), UniProt Q9Y5Z0); test: Test 2: Inhibition of Human BACE-2; type: biochemical; details: mean IC50, recombinant BACE-2, pH 4.5
Text: Test 2: Inhibition of Human BACE-2

Human BACE-1, sequence (P56817 46-457): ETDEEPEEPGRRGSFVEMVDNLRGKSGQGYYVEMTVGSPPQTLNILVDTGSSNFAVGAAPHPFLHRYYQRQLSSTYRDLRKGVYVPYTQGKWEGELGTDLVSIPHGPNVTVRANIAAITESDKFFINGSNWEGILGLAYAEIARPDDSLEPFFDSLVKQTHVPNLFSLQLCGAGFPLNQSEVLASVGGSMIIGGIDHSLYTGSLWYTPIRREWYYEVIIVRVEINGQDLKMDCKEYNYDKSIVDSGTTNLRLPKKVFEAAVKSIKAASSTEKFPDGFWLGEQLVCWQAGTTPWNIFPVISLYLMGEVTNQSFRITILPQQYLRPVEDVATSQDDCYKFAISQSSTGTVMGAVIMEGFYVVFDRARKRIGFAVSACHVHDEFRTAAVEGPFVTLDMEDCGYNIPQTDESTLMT
Human BACE-2, sequence (Q9Y5Z0 63-473): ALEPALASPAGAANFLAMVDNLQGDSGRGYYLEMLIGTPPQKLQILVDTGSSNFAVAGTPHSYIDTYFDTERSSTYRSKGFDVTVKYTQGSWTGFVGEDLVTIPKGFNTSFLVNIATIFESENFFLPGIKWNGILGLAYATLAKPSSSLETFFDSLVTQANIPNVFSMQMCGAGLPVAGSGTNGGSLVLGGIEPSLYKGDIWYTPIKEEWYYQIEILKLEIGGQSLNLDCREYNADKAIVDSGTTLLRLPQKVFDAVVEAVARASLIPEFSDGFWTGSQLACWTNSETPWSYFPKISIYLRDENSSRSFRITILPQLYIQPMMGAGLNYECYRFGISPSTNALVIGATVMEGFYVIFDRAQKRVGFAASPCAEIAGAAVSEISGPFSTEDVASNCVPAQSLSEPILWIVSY

| IC50 [1] [nM] | IC50 [3] [nM] | Structure (SMILES) | IC50 [2] [nM] |
| --- | --- | --- | --- |
| 270 | 1000 | Cc1cc(C#N)cnc1C(=O)Nc1cccc(C2(CF)COCC(N)=N2)n1 (centres unmarked) [Example 5, 5-{6-[(5-Cyano-3-methyl-pyridine-2-carbonyl)-amino]-pyridin-2-yl}-5-fluoromethyl-5,6-dihydro-2H-[1,4]oxazin-3-yl-ammonium trifluoro acetate] | 40 |
| – | – | C[C@@]1(c2cccc(NC(=O)c3ncc(C#N)cc3Cl)n2)CO[C@@](C)(C(F)(F)F)C(N)=N1 [Example 20, 3-Chloro-5-cyano-pyridine-2-carboxylic acid [6-((3R,6R)-5-amino-3,6-dimethyl-6-trifluoromethyl-3,6-dihydro-2H-[1,4]oxazin-3-yl)-pyridin-2-yl]-amide] | 5 |
| – | – | C[C@@]1(c2nc(NC(=O)c3nc4ccn(CC(F)F)c4nc3N)ccc2F)CO[C@@](C)(C(F)(F)F)C(N)=N1 [Example 45, 3-Amino-5-(2,2-difluoro-ethyl)-5H-pyrrolo[2,3-b]pyrazine-2-carboxylic acid [6-((3R,6R)-5-amino-3,6-dimethyl-6-trifluoromethyl-3,6-dihydro-2H-[1,4]oxazin-3-yl)-5-fluoro-pyridin-2-yl]amide] | 3600 |
| – | – | C[C@@]1(c2cccc(NC(=O)c3ncc(C#N)cc3N)n2)CO[C@@](C)(C(F)(F)F)C(N)=N1 [Example 19, 3-Amino-5-cyano-pyridine-2-carboxylic acid [6-((3R,6R)-5-amino-3,6-dimethyl-6-trifluoromethyl-3,6-dihydro-2H-[1,4]oxazin-3-yl)-pyridin-2-yl]-amide] | 48 |
| – | – | C[C@@]1(c2cc(NC(=O)c3ncc(OC(F)F)cc3Cl)ncc2F)CO[C@@](C)(C(F)(F)F)C(N)=N1 [Example 36, 3-Chloro-5-difluoromethoxy-pyridine-2-carboxylic acid [4-((3R,6R)-5-amino-3,6-dimethyl-6-trifluoromethyl-3,6-dihydro-2H-[1,4]oxazin-3-yl)-5-fluoro-pyridin-2-yl]-amide] | 410 |
| – | – | C[C@@]1(c2cccc(NC(=O)c3ncc(Br)cc3Cl)n2)CO[C@@](C)(C(F)(F)F)C(N)=N1 [Example 22, 5-Bromo-3-chloro-pyridine-2-carboxylic acid [6-((3R,6R)-5-amino-3,6-dimethyl-6-trifluoromethyl-3,6-dihydro-2H-[1,4]oxazin-3-yl)-pyridin-2-yl]-amide] | 29 |
| – | – | N#Cc1cnc(C(=O)Nc2ccc(F)c([C@]3(C(F)F)COCC(N)=N3)n2)c(Cl)c1 [Example 40, 3-Chloro-5-cyano-pyridine-2-carboxylic acid [6-((R)-5-amino-3-difluoromethyl-3,6-dihydro-2H-[1,4]oxazin-3-yl)-5-fluoro-pyridin-2-yl]-amide] | 12 |
| – | – | Cc1cnc(C(=O)Nc2ccc(F)c([C@]3(C)CO[C@@](C)(C(F)(F)F)C(N)=N3)n2)c(C)n1 [Example 41, 3,5-Dimethyl-pyrazine-2-carboxylic acid [6-((3R,6R)-5-amino-3,6-dimethyl-6-trifluoromethyl-3,6-dihydro-2H-[1,4]oxazin-3-yl)-5-fluoro-pyridin-2-yl]amide] | 161 |
| – | – | [2H]c1nc(C(=O)Nc2cccc([C@]3(C)CO[C@@](C)(C(F)(F)F)C(N)=N3)n2)c(C([2H])([2H])[2H])c([2H])c1Cl [Example 21, 5-Chloro-4,6-dideuterio-3-trideuteriomethyl-pyridine-2-carboxylic acid [6-((3R,6R)-5-amino-3,6-dimethyl-6-trifluoromethyl-3,6-dihydro-2H-[1,4]oxazin-3-yl)-pyridin-2-yl]-amide] | 110 |
| 1600 | 1700 | NC1=NC(CF)(c2cccc(NC(=O)c3ccc(Br)cn3)n2)COC1 (centres unmarked) [Example 4, 5-Bromo-pyridine-2-carboxylic acid [6-(5-amino-3-fluoromethyl-3,6-dihydro-2H-[1,4]oxazin-3-yl)-pyridin-2-yl]-amide] | 98 |
| 2600 | – | NC1=NC(CF)(c2cccc(NC(=O)c3ccc(Cl)cn3)n2)COC1 (centres unmarked) [Example 3, 5-{6-[(5-Chloro-pyridine-2-carbonyl)-amino]-pyridin-2-yl}-5-fluoromethyl-5,6-dihydro-2H-[1,4]oxazin-3-yl-ammonium trifluoro acetate] | 140 |
| – | – | NC1=NC(CF)(c2cc(NC(=O)c3ccc(Br)cn3)cnc2Cl)COC1 (centres unmarked) [Example 18, 5-Bromo-pyridine-2-carboxylic acid [5-(5-amino-3-fluoromethyl-3,6-dihydro-2H-[1,4]oxazin-3-yl)-6-chloro-pyridin-3-yl]-amide hydrochloride] | 15 |
